# Measured values from patent US8323624B2, “S-triazine sunscreens bearing hindered para-aminobenzalmalonate/para-aminobenzalmalonamide and aminobenzoate/aminobenzamide substituents” (L'Oreal, priority 2004, dated 2012).
# Test: Photostability of oily-solution films under solar simulator irradiation, quantified by HPLC
# Format: physicochemical
# Details: 2% by weight in the oil Miglyol 812, film on ground glass; irradiated one hour with Oriel solar simulator (UV-A=14.2 mW/cm^2; UV-B=0.41 mW/cm^2); HPLC vs non-irradiated controls; means over 3 samples
# Description: The two products were dissolved at 2% by weight in the oil Miglyol 812. Approximately 10 mg of oily solution are spread over 10 cm^2 at the surface of a hollow disc made of ground glass; the amount is determined by weighing.
# The films of the oily solutions are irradiated for one hour using an Oriel solar simulator (UV-A=14.2 mW/cm^2; UV-B=0.41 mW/cm^2) and then extracted with 10 ml of ethanol comprising 10% of isopropanol subjected to ultrasound for 5 min. The products are quantified by analyzing the extracts by HPLC.
# HPLC conditions: column: UP5WOD-25QS, 250×4.6 mm, 5 μm, Interchrom; eluent: methanol (Comparative Example 1) and 98% methanol+2% water (Example 1); flow rate: 1 ml/min; volume injected: 10 μl; detection: diode array detector; rt (min): 5.2 (compound of the prior art) and 7.4 (compound of Example 1).
# The levels of loss are determined by comparison of the amounts of product present in the irradiated samples and in the non-irradiated controls prepared simultaneously and treated in the same way (means over 3 samples; A=area/mg of solution): % loss=100×(A0−Airr)/A0
row,SMILES,% of disappearance (mean loss) [%]
1,"CC(C)COC(=O)C(=Cc1ccc(Nc2nc(Nc3ccc(C=C(C(=O)OCC(C)C)C(=O)OCC(C)C)cc3)nc(Nc3ccc(C=C(C(=O)OCC(C)C)C(=O)OCC(C)C)cc3)n2)cc1)C(=O)OCC(C)C [Compound (prior art), 2,4,6-Tris(diisobutyl 4′-aminobenzalmalonate)-s-triazine]",10.0
2,"CCCCOC(=O)c1ccc(Nc2nc(Nc3ccc(C=C(C(=O)OCC(C)(C)C)C(=O)OCC(C)(C)C)cc3)nc(Nc3ccc(C=C(C(=O)OCC(C)(C)C)C(=O)OCC(C)(C)C)cc3)n2)cc1 [Compound of formula (1), 2,4-bis(dineopentyl 4′-aminobenzalmalonate)-6-(butyl 4″-aminobenzoate)-s-triazine]",4.6
